In the supplement of paper PMC10307832:

Legend:
Assay in all cases: relative viability (nuclei count vs DMSO), 5 days (fraction); higher = more cells survive
A549 = system: A549
Outline: (§1)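 Values are medians from duplicate plates. Each reflects relative viability, defined as the nuclei count of treated wells over that of vehicle wells. Lung cancer cell lines in 1536-well plates were pin-tool dosed one day after seeding with one drug alone or with a fixed anchor-drug dose plus five library-drug doses (not always all listed) in √10 steps, then fixed, stained and imaged at 4× after 5 days.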

COR-L 105 = system: COR-L 105
Outline: as §1

LCLC-103H = system: LCLC-103H
Outline: as §1

LK-2 = system: LK-2
Outline: as §1

NCI-H1355 = system: NCI-H1355
Outline: as §1

NCI-H1623 = system: NCI-H1623
Outline: as §1

NCI-H1666 = system: NCI-H1666
Outline: as §1

NCI-H520 = system: NCI-H520
Outline: as §1

NCI-H522 = system: NCI-H522
Outline: as §1

**Q.** For `Nc1ccn([C@@H]2O[C@H](CO)[C@@H](O)[C@@H]2O)c(=O)n1` [Cytarabine] + N=C(N)NC(=N)NCCc1ccccc1 [Phenformin] (partner 250 µM), which relative viability (A549; first compound 0.005 µM) is on record?
**A.** Its relative viability is 0.104.

**Q.** And the relative viability (A549; first compound 0.01581 µM)?
**A.** Its relative viability is 0.127.

**Q.** What about the relative viability (A549; first compound 0.05 µM) of the same molecule?
**A.** The relative viability was 0.106.

**Q.** And the relative viability (A549; first compound 0.1581 µM)?
**A.** Its relative viability is 0.0512.

**Q.** And the relative viability (A549; first compound 0.5 µM)?
**A.** The relative viability was 0.0301.

**Q.** What about the relative viability (COR-L 105; first compound 0.005 µM) of the same molecule?
**A.** The relative viability was 0.428.

**Q.** And the relative viability (COR-L 105; first compound 0.01581 µM)?
**A.** Its relative viability is 0.504.

**Q.** And the relative viability (COR-L 105; first compound 0.05 µM)?
**A.** The relative viability was 0.43.

**Q.** And the relative viability (COR-L 105; first compound 0.1581 µM)?
**A.** The relative viability was 0.29.

**Q.** And the relative viability (COR-L 105; first compound 0.5 µM)?
**A.** Its relative viability is 0.259.

**Q.** And the relative viability (LCLC-103H; first compound 0.005 µM)?
**A.** The relative viability was 0.332.

**Q.** What about the relative viability (LCLC-103H; first compound 0.01581 µM) of the same molecule?
**A.** The relative viability was 0.365.

**Q.** What about the relative viability (LCLC-103H; first compound 0.05 µM) of the same molecule?
**A.** The relative viability was 0.335.

**Q.** And the relative viability (LCLC-103H; first compound 0.1581 µM)?
**A.** The relative viability was 0.31.

**Q.** And the relative viability (LCLC-103H; first compound 0.5 µM)?
**A.** The relative viability was 0.311.

**Q.** And the relative viability (LK-2; first compound 0.005 µM)?
**A.** The relative viability was 0.357.

**Q.** What about the relative viability (LK-2; first compound 0.01581 µM) of the same molecule?
**A.** Its relative viability is 0.247.

**Q.** What about the relative viability (LK-2; first compound 0.05 µM) of the same molecule?
**A.** The relative viability was 0.288.

**Q.** And the relative viability (LK-2; first compound 0.1581 µM)?
**A.** The relative viability was 0.149.

**Q.** And the relative viability (LK-2; first compound 0.5 µM)?
**A.** Its relative viability is 0.196.

**Q.** And the relative viability (NCI-H1355; first compound 0.005 µM)?
**A.** Its relative viability is 0.353.

**Q.** What about the relative viability (NCI-H1355; first compound 0.01581 µM) of the same molecule?
**A.** Its relative viability is 0.428.

**Q.** What about the relative viability (NCI-H1355; first compound 0.05 µM) of the same molecule?
**A.** Its relative viability is 0.382.

**Q.** What about the relative viability (NCI-H1355; first compound 0.1581 µM) of the same molecule?
**A.** Its relative viability is 0.254.

**Q.** What about the relative viability (NCI-H1355; first compound 0.5 µM) of the same molecule?
**A.** Its relative viability is 0.261.

**Q.** What about the relative viability (NCI-H1623; first compound 0.005 µM) of the same molecule?
**A.** The relative viability was 0.432.

**Q.** What about the relative viability (NCI-H1623; first compound 0.01581 µM) of the same molecule?
**A.** Its relative viability is 0.396.

**Q.** And the relative viability (NCI-H1623; first compound 0.05 µM)?
**A.** The relative viability was 0.357.

**Q.** And the relative viability (NCI-H1623; first compound 0.1581 µM)?
**A.** The relative viability was 0.402.

**Q.** And the relative viability (NCI-H1623; first compound 0.5 µM)?
**A.** The relative viability was 0.431.

**Q.** What about the relative viability (NCI-H1666; first compound 0.005 µM) of the same molecule?
**A.** Its relative viability is 0.545.

**Q.** What about the relative viability (NCI-H1666; first compound 0.01581 µM) of the same molecule?
**A.** The relative viability was 0.669.

**Q.** And the relative viability (NCI-H1666; first compound 0.05 µM)?
**A.** Its relative viability is 0.466.

**Q.** What about the relative viability (NCI-H1666; first compound 0.1581 µM) of the same molecule?
**A.** The relative viability was 0.401.

**Q.** What about the relative viability (NCI-H1666; first compound 0.5 µM) of the same molecule?
**A.** Its relative viability is 0.396.

**Q.** And the relative viability (NCI-H520; first compound 0.005 µM)?
**A.** Its relative viability is 0.558.

**Q.** And the relative viability (NCI-H520; first compound 0.01581 µM)?
**A.** The relative viability was 0.314.

**Q.** And the relative viability (NCI-H520; first compound 0.05 µM)?
**A.** The relative viability was 0.658.

**Q.** What about the relative viability (NCI-H520; first compound 0.1581 µM) of the same molecule?
**A.** Its relative viability is 0.383.

**Q.** And the relative viability (NCI-H520; first compound 0.5 µM)?
**A.** The relative viability was 0.323.

**Q.** And the relative viability (NCI-H522; first compound 0.005 µM)?
**A.** The relative viability was 0.669.

**Q.** What about the relative viability (NCI-H522; first compound 0.01581 µM) of the same molecule?
**A.** Its relative viability is 0.602.

**Q.** And the relative viability (NCI-H522; first compound 0.05 µM)?
**A.** The relative viability was 0.554.

**Q.** What about the relative viability (NCI-H522; first compound 0.1581 µM) of the same molecule?
**A.** The relative viability was 0.489.

**Q.** And the relative viability (NCI-H522; first compound 0.5 µM)?
**A.** Its relative viability is 0.449.

**Q.** Which results are given for `Cc1sc2c(c1C)C(c1ccc(Cl)cc1)=N[C@@H](CC(=O)OC(C)(C)C)c1nnc(C)n1-2` [JQ1] + N=C(N)NC(=N)NCCc1ccccc1 [Phenformin] (partner 250 µM)?
**A.** relative viability (A549; first compound 0.04 µM): 0.171; relative viability (A549; first compound 0.1265 µM): 0.137; relative viability (A549; first compound 0.4 µM): 0.14; relative viability (A549; first compound 1.265 µM): 0.182; relative viability (A549; first compound 4 µM): 0.21; relative viability (COR-L 105; first compound 0.04 µM): 0.432; relative viability (COR-L 105; first compound 0.1265 µM): 0.239; relative viability (COR-L 105; first compound 0.4 µM): 0.217; relative viability (COR-L 105; first compound 1.265 µM): 0.22; relative viability (COR-L 105; first compound 4 µM): 0.289; relative viability (LCLC-103H; first compound 0.04 µM): 0.345; relative viability (LCLC-103H; first compound 0.1265 µM): 0.308; relative viability (LCLC-103H; first compound 0.4 µM): 0.371; relative viability (LCLC-103H; first compound 1.265 µM): 0.268; relative viability (LCLC-103H; first compound 4 µM): 0.28; relative viability (LK-2; first compound 0.04 µM): 0.298; relative viability (LK-2; first compound 0.1265 µM): 0.379; relative viability (LK-2; first compound 0.4 µM): 0.21; relative viability (LK-2; first compound 1.265 µM): 0.101; relative viability (LK-2; first compound 4 µM): 0.147; relative viability (NCI-H1355; first compound 0.04 µM): 0.45; relative viability (NCI-H1355; first compound 0.1265 µM): 0.473; relative viability (NCI-H1355; first compound 0.4 µM): 0.433; relative viability (NCI-H1355; first compound 1.265 µM): 0.388; relative viability (NCI-H1355; first compound 4 µM): 0.326; relative viability (NCI-H1623; first compound 0.04 µM): 0.597; relative viability (NCI-H1623; first compound 0.1265 µM): 0.628; relative viability (NCI-H1623; first compound 0.4 µM): 0.547; relative viability (NCI-H1623; first compound 1.265 µM): 0.486; relative viability (NCI-H1623; first compound 4 µM): 0.406; relative viability (NCI-H1666; first compound 0.04 µM): 0.572; relative viability (NCI-H1666; first compound 0.1265 µM): 0.596; relative viability (NCI-H1666; first compound 0.4 µM): 0.501; relative viability (NCI-H1666; first compound 1.265 µM): 0.516; relative viability (NCI-H1666; first compound 4 µM): 0.486; relative viability (NCI-H520; first compound 0.04 µM): 0.475; relative viability (NCI-H520; first compound 0.1265 µM): 0.614; relative viability (NCI-H520; first compound 0.4 µM): 0.544; relative viability (NCI-H520; first compound 1.265 µM): 0.275; relative viability (NCI-H520; first compound 4 µM): 0.321; relative viability (NCI-H522; first compound 0.04 µM): 0.656; relative viability (NCI-H522; first compound 0.1265 µM): 0.615; relative viability (NCI-H522; first compound 0.4 µM): 0.55; relative viability (NCI-H522; first compound 1.265 µM): 0.519; relative viability (NCI-H522; first compound 4 µM): 0.323

**Q.** Which results are given for `COc1cc2nccc(Oc3ccc(NC(=O)Nc4cc(C)on4)c(Cl)c3)c2cc1OC` [Tivozanib] + N=C(N)NC(=N)NCCc1ccccc1 [Phenformin] (partner 250 µM)?
**A.** relative viability (A549; first compound 0.005 µM): 0.171; relative viability (A549; first compound 0.01581 µM): 0.163; relative viability (A549; first compound 0.05 µM): 0.19; relative viability (A549; first compound 0.1581 µM): 0.124; relative viability (A549; first compound 0.5 µM): 0.209; relative viability (COR-L 105; first compound 0.005 µM): 0.49; relative viability (COR-L 105; first compound 0.01581 µM): 0.482; relative viability (COR-L 105; first compound 0.05 µM): 0.558; relative viability (COR-L 105; first compound 0.1581 µM): 0.501; relative viability (COR-L 105; first compound 0.5 µM): 0.43; relative viability (LCLC-103H; first compound 0.005 µM): 0.325; relative viability (LCLC-103H; first compound 0.01581 µM): 0.326; relative viability (LCLC-103H; first compound 0.05 µM): 0.35; relative viability (LCLC-103H; first compound 0.1581 µM): 0.306; relative viability (LCLC-103H; first compound 0.5 µM): 0.348; relative viability (LK-2; first compound 0.005 µM): 0.459; relative viability (LK-2; first compound 0.01581 µM): 0.457; relative viability (LK-2; first compound 0.05 µM): 0.512; relative viability (LK-2; first compound 0.1581 µM): 0.283; relative viability (LK-2; first compound 0.5 µM): 0.199; relative viability (NCI-H1355; first compound 0.005 µM): 0.413; relative viability (NCI-H1355; first compound 0.01581 µM): 0.432; relative viability (NCI-H1355; first compound 0.05 µM): 0.481; relative viability (NCI-H1355; first compound 0.1581 µM): 0.43; relative viability (NCI-H1355; first compound 0.5 µM): 0.382; relative viability (NCI-H1623; first compound 0.005 µM): 0.582; relative viability (NCI-H1623; first compound 0.01581 µM): 0.622; relative viability (NCI-H1623; first compound 0.05 µM): 0.588; relative viability (NCI-H1623; first compound 0.5 µM): 0.607; relative viability (NCI-H1666; first compound 0.005 µM): 0.507; relative viability (NCI-H1666; first compound 0.01581 µM): 0.553; relative viability (NCI-H1666; first compound 0.05 µM): 0.579; relative viability (NCI-H1666; first compound 0.1581 µM): 0.569; relative viability (NCI-H1666; first compound 0.5 µM): 0.582; relative viability (NCI-H520; first compound 0.005 µM): 0.57; relative viability (NCI-H520; first compound 0.01581 µM): 0.539; relative viability (NCI-H520; first compound 0.05 µM): 0.631; relative viability (NCI-H520; first compound 0.1581 µM): 0.311; relative viability (NCI-H520; first compound 0.5 µM): 0.348; relative viability (NCI-H522; first compound 0.005 µM): 0.595; relative viability (NCI-H522; first compound 0.01581 µM): 0.73; relative viability (NCI-H522; first compound 0.05 µM): 0.593; relative viability (NCI-H522; first compound 0.1581 µM): 0.619; relative viability (NCI-H522; first compound 0.5 µM): 0.705
